Test results: US9808450B2, “Solid forms comprising 3-(4-amino-1-OXO-1,3-dihydro-isoindol-2-yl)-piperidine-2,6-dione and a coformer, compositions and methods of use thereof” (CELGENE CORPORATION, priority 2013, dated 2017)
Converted amounts (≈) assume the structure as drawn.

Tests used:
[1] = tested on: tumor necrosis factor alpha (TNF-α); conditions: peripheral blood mononuclear cells; cited from earlier work
cyclooxygenase-2 (COX-2) = conditions: in vitro; cited from earlier work
[2] = Estimated solubility of lenalidomide in solvents at ambient temperature (aliquot addition, visual inspection); format: physicochemical; conditions: organic solvent or mixture, thermodynamic from solid
Description: Solubility was estimated by treating a weighed sample of lenalidomide with measured aliquots of the test solvent at ambient temperature, with shaking and/or sonication between aliquots. Dissolution was determined by visual inspection. Solubility numbers were calculated by dividing the total amount of solvent used to dissolve the sample by the weight of the sample. The actual solubilities may be greater than the numbers calculated because of the use of solvent aliquots that were too large or because of slow dissolution rates. […] The solubility number is expressed as “greater than” if dissolution occurred on addition of the first solvent aliquot.

[3] = tested on: hematopoietic tumor models, including multiple myeloma; conditions: some in vivo nonclinical hematopoietic tumor models; cited from earlier work
[4] = tested on: cells derived from patients with multiple myeloma and del (5q) myelodysplastic syndromes; conditions: cells from patients with multiple myeloma and del (5q) MDS; cited from earlier work
COX-1 = conditions: in vitro; cited from earlier work

In the case of `Nc1cccc2c1CN(C1CCC(=O)NC1=O)C2=O` (stereo not drawn) [Lenalidomide, 3-(4-amino-1-oxo-1,3-dihydro-isoindol-2-yl)-piperidine-2,6-dione], the “Secretion of TNF-α” value [1] is listed as “inhibits the secretion”, the “Expression of COX-2” value (cyclooxygenase-2 (COX-2)) is listed as “inhibited the expression” and the solubility ([2]; acetone) is listed as 2200 µg/mL (≈ 8.49 mM). It also gave a solubility ([2]; acetonitrile) of 3400 µg/mL (≈ 13.1 mM), a solubility ([2]; methanol) of 2600 µg/mL (≈ 10 mM) and a solubility ([2]; tetrahydrofuran) of 3000 µg/mL (≈ 11.6 mM). The Tumor growth [3] was “delay in tumor growth”, the “Growth of cells in vitro” value [4] was “inhibits the growth” and the “Expression of COX-1” value (COX-1) was “not”.
